Laboratory results published in US12252524B2, “GIP/GLP1 co-agonist compounds” (Eli Lilly and Company, priority 2018, dated 2025).
Read-outs that look alike come from different tables or passages of the source. Numbered stars: 1 amine (or outer) side, 2 acyl side, 3 side chain; on linkers, the order of the positions; unused ones are H or OH. Square brackets hold non-standard residues; d marks the D form. Side chains are listed from the residue outwards. Peptide text beside a SMILES is read from it. * marks the point of attachment. C20 diacid = O=C(O)CCCCCCCCCCCCCCCCCCC(=O)*; C18 diacid = O=C(O)CCCCCCCCCCCCCCCCC(=O)*; γGlu = O=C(O)[C@H](CCC(=O)[*:2])N[*:1]; αMeF = C[C@](N)(Cc1ccccc1)C(=O)O; αMeL = CC(C)C[C@](C)(N)C(=O)O; AEEA = NCCOCCOCC(=O)O; Aib = CC(C)(N)C(=O)O

Experiments:
human GLP-1R = human GLP-1R (Homo sapiens, UniProt P43220); test: [125I]-GLP-1 binding (SPA), human GLP-1 receptor; set-up: expressed in transfected cells; crude membranes
Sequence of human GLP-1R (P43220 24-463): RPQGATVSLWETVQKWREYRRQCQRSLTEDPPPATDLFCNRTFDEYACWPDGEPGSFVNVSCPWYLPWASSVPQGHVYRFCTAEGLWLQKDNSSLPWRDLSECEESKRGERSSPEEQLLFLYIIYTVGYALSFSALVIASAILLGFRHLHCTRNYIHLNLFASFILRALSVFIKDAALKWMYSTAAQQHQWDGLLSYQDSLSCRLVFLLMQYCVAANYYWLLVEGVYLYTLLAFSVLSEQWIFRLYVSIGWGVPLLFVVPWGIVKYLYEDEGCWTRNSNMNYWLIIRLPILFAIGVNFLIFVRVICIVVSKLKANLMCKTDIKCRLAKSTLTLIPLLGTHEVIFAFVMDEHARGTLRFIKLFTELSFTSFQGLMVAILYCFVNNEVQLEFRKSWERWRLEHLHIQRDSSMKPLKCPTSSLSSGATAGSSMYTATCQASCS
Method in brief: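 Ki values are geometric means with SEM over independent replicates on different days, derived from IC50s fitted by four-parameter nonlinear regression. The assay used crude cell membranes in HEPES buffer, pH 7.4, containing CaCl2, MgCl2, bacitracin and TWEEN-20.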

[1] = system: CD8+ T cell depleted peripheral blood mononuclear cells; test: CD4+ T cell assay for potential clinical immunogenicity
Experimental: (§1) The purpose of this study is to determine the relative potential for clinical immunogenicity of a compound.
(§2) CD8+ T cell depleted peripheral blood mononuclear cells are prepared and labeled with Carboxyfluorescein Diacetate Succinimidyl Ester (CFSE, Invitrogen) from a cohort of 10 healthy donors. […] Cultures are incubated for 7 days at 37° C. with 5% CO2. On day 7, samples are analyzed by flow cytometry using High Throughput Sampler (HTS). Data is analyzed using FlowJo® Software (FlowJo, LLC, TreeStar).

[2] = Proteolytic stability assay in 1% rat small intestinal fluid (rSIF)
Experimental: The stability of peptides are compared in 1% rat small intestinal fluid (rSIF). The amount of intact peptide is measured for a sample peptide at 0, 3, 15, and 30 minutes to assess proteolytic stability. The amount of intact peptide for a sample peptide is measured in 90% pig small intestinal fluid (pSIF) at 0, 30, 45, and 60 minutes to assess the proteolytic stability.
Peptides are prepared at 0.4 mg/mL in 50 mM Tris pH8.0. […] The mixture is incubated at 37° C. at 150 rpm. Thirty μL of each sample are removed and placed into a new tube before the rSIF is added and at […]. At each time point, the reaction was quenched by 1% TFA in 50% ACN at 1:1. The samples are diluted 100 times using dilution buffer (1:1 of 1% TFA in 50% ACN: 50 mM Tris pH8) and ready for analysis using mass spectrometry (MS).
The data analysis is performed using MassLynx.

human GIP receptor = molecular target: T1, human GIP receptor (Homo sapiens, UniProt P48546); test: [125I]-GIP binding (SPA), human GIP receptor
T1 construct: expressed in transfected cells; crude membranes
T1 sequence (P48546 22-466): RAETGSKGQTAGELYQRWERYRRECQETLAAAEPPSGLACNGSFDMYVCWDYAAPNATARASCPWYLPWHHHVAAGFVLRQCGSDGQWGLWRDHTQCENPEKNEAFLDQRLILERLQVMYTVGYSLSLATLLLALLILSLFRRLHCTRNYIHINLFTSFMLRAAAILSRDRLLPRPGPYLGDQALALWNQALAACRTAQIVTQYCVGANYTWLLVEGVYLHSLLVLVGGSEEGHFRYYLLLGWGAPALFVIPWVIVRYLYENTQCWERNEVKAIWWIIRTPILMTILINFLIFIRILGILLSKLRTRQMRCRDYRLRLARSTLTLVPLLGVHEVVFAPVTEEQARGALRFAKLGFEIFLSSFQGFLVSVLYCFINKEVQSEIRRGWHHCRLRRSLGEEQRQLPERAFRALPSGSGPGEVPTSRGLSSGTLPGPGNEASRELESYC

[3] = system: CD8+ T cell depleted peripheral blood mononuclear cells
Experimental: as §1, §2

[4] = rat, real gastrointestinal fluid or homogenate, pH 8
[5] = read-out: hGLP1R Ki, (nM) (SEM, n)
[6] = read-out: hGIPR Ki, nM (SEM, n)

Row | SMILES | Ki (human GLP-1R) [nM] | frequency of positive CD+ T cell response (CDI>2.5) ([1]; CD4+ T cell assay) | % Donor Response (CD4+ T cell response) ([1]; Examples 10 uM, KLH 0.33 μM, 7 days) [%] | percentage of peptide not cleaved using rSIF ([2]; 0 min, 1% rSIF, 37° C.) [%] | remaining at 0.05 h, 0.4 mg/mL [2, 4] [%] | remaining at 0.25 h, 0.4 mg/mL [2, 4] [%] | remaining at 1 h, 0.4 mg/mL [2, 4] [%] | Ki (human GIP receptor) [nM] | Ki (human GLP-1R; [5]) [nM] | frequency of positive CD+ T cell response (CDI>2.5) [3] | Ki (human GIP receptor; [6]) [nM]
1 | CC[C@H](C)[C@H](NC(=O)[C@H](CC(C)C)NC(=O)[C@](C)(Cc1ccc(O)cc1)NC(=O)[C@@H](CCC(=O)O)NC(=O)[C@@H](NC(=O)[C@H](Cc1ccccc1)NC(=O)[C@H](CCC(=O)O)NC(=O)C(C)(C)NC(=O)[C@H](CCC(N)=O)NC(=O)[C@H](C)NC(=O)[C@H](CCCCNC(=O)COCCOCCNC(=O)COCCOCCNC(=O)CC[C@H](NC(=O)CCCCCCCCCCCCCCCCC(=O)O)C(=O)O)NC(=O)[C@H](CCCN)NC(=O)[C@H](CC(=O)O)NC(=O)[C@H](CC(C)C)NC(=O)[C@](C)(CC(C)C)NC(=O)[C@@H](NC(=O)[C@H](CO)NC(=O)[C@H](Cc1ccncc1)NC(=O)[C@H](CC(=O)O)NC(=O)[C@H](CO)NC(=O)[C@@H](NC(=O)[C@](C)(Cc1ccccc1F)NC(=O)[C@@H](NC(=O)CNC(=O)[C@H](CCC(=O)O)NC(=O)C(C)(C)NC(=O)[C@@H](N)Cc1ccc(O)cc1)[C@@H](C)O)[C@@H](C)O)[C@@H](C)CC)[C@@H](C)CC)C(=O)N[C@@H](CCC(=O)O)C(=O)NCC(=O)NCC(=O)N1CCC[C@H]1C(=O)N[C@@H](CO)C(=O)N[C@@H](CO)C(=O)NCC(=O)N[C@@H](C)C(=O)N1CCC[C@H]1C(=O)N1CCC[C@H]1C(=O)N1CCC[C@H]1C(=O)N[C@@H](CO)C(N)=O [Example 4] | 1.63 | low | 0 | 100 | 97.9 | 99.3 | 89.4 | 0.0528 | – | – | –
2 | CC[C@H](C)[C@H](NC(=O)[C@H](CC(C)C)NC(=O)[C@H](Cc1ccc(O)cc1)NC(=O)[C@H](CCC(=O)O)NC(=O)[C@@H](NC(=O)[C@H](Cc1ccccc1)NC(=O)[C@H](C)NC(=O)C(C)(C)NC(=O)[C@H](CCC(N)=O)NC(=O)[C@H](C)NC(=O)[C@H](CCCCNC(=O)COCCOCCNC(=O)COCCOCCNC(=O)CC[C@H](NC(=O)CCCCCCCCCCCCCCCCCCC(=O)O)C(=O)O)NC(=O)[C@H](CCCCN)NC(=O)[C@H](CC(=O)O)NC(=O)[C@H](CC(C)C)NC(=O)[C@H](CC(C)C)NC(=O)[C@@H](NC(=O)[C@H](CO)NC(=O)[C@H](Cc1ccc(O)cc1)NC(=O)[C@H](CC(=O)O)NC(=O)[C@H](CO)NC(=O)[C@@H](NC(=O)[C@H](Cc1ccccc1)NC(=O)[C@@H](NC(=O)CNC(=O)[C@H](CCC(=O)O)NC(=O)C(C)(C)NC(=O)[C@@H](N)Cc1ccc(O)cc1)[C@@H](C)O)[C@@H](C)O)[C@@H](C)CC)[C@@H](C)CC)C(=O)N[C@@H](C)C(=O)NCC(=O)NCC(=O)N1CCC[C@H]1C(=O)N[C@@H](CO)C(=O)N[C@@H](CO)C(=O)NCC(=O)N[C@@H](C)C(=O)N1CCC[C@H]1C(=O)N1CCC[C@H]1C(=O)N1CCC[C@H]1C(=O)N[C@@H](CO)C(N)=O [Example 288] (H-Y[Aib]EGTFTSDYSILLDKK([AEEA-AEEA-γGlu-C20 diacid])AQ[Aib]AFIEYLIAGGPSSGAPPPS-NH2; N-terminus assumed) | – | – | – | – | – | – | – | – | 1.6 | low | 0.058
3 | CC[C@H](C)[C@H](NC(=O)[C@H](CC(C)C)NC(=O)[C@H](Cc1ccc(O)cc1)NC(=O)[C@H](CCC(=O)O)NC(=O)[C@@H](NC(=O)[C@H](Cc1ccccc1)NC(=O)[C@H](CCC(=O)O)NC(=O)C(C)(C)NC(=O)[C@H](CCC(N)=O)NC(=O)[C@H](C)NC(=O)[C@H](CCCCNC(=O)COCCOCCNC(=O)COCCOCCNC(=O)CC[C@H](NC(=O)CCCCCCCCCCCCCCCCCCC(=O)O)C(=O)O)NC(=O)[C@H](CCCCN)NC(=O)[C@H](CC(=O)O)NC(=O)[C@H](CC(C)C)NC(=O)[C@](C)(CC(C)C)NC(=O)[C@@H](NC(=O)[C@H](CO)NC(=O)[C@H](Cc1ccc(O)cc1)NC(=O)[C@H](CC(=O)O)NC(=O)[C@H](CO)NC(=O)[C@@H](NC(=O)[C@H](Cc1ccccc1)NC(=O)[C@@H](NC(=O)CNC(=O)[C@H](CCC(=O)O)NC(=O)C(C)(C)NC(=O)[C@@H](N)Cc1ccc(O)cc1)[C@@H](C)O)[C@@H](C)O)[C@@H](C)CC)[C@@H](C)CC)C(=O)N[C@@H](C)C(=O)NCC(=O)NCC(=O)N1CCC[C@H]1C(=O)N[C@@H](CO)C(=O)N[C@@H](CO)C(=O)NCC(=O)N[C@@H](C)C(=O)N1CCC[C@H]1C(=O)N1CCC[C@H]1C(=O)N1CCC[C@H]1C(=O)N[C@@H](CO)C(N)=O [Example 289] (H-Y[Aib]EGTFTSDYSI[αMeL]LDKK([AEEA-AEEA-γGlu-C20 diacid])AQ[Aib]EFIEYLIAGGPSSGAPPPS-NH2) | – | – | – | – | – | – | – | – | 2.63 | low | 0.0457
4 | CC[C@H](C)[C@H](NC(=O)[C@H](CC(C)C)NC(=O)[C@H](Cc1ccc(O)cc1)NC(=O)[C@H](CCC(=O)O)NC(=O)[C@@H](NC(=O)[C@H](Cc1ccccc1)NC(=O)[C@H](C)NC(=O)C(C)(C)NC(=O)[C@H](CCC(N)=O)NC(=O)[C@H](C)NC(=O)[C@H](CCCCNC(=O)COCCOCCNC(=O)COCCOCCNC(=O)CC[C@H](NC(=O)CCCCCCCCCCCCCCCCC(=O)O)C(=O)O)NC(=O)[C@H](CCCCN)NC(=O)[C@H](CC(=O)O)NC(=O)[C@H](CC(C)C)NC(=O)[C@H](CC(C)C)NC(=O)[C@@H](NC(=O)[C@H](CO)NC(=O)[C@H](Cc1ccc(O)cc1)NC(=O)[C@H](CC(=O)O)NC(=O)[C@H](CO)NC(=O)[C@@H](NC(=O)[C@](C)(Cc1ccccc1)NC(=O)[C@@H](NC(=O)CNC(=O)[C@H](CCC(=O)O)NC(=O)C(C)(C)NC(=O)[C@@H](N)Cc1ccc(O)cc1)[C@@H](C)O)[C@@H](C)O)[C@@H](C)CC)[C@@H](C)CC)C(=O)N[C@@H](CCC(=O)O)C(=O)NCC(=O)NCC(=O)N1CCC[C@H]1C(=O)N[C@@H](CO)C(=O)N[C@@H](CO)C(=O)NCC(N)=O [Example 301] (H-Y[Aib]EGT[αMeF]TSDYSILLDKK([AEEA-AEEA-γGlu-C18 diacid])AQ[Aib]AFIEYLIEGGPSSG-NH2) | – | – | – | – | – | – | – | – | 0.875 | low | 0.0273
5 | CC[C@H](C)[C@H](NC(=O)[C@H](CC(C)C)NC(=O)[C@H](Cc1ccc(O)cc1)NC(=O)[C@H](CCC(=O)O)NC(=O)[C@@H](NC(=O)[C@H](Cc1ccccc1)NC(=O)[C@H](C)NC(=O)C(C)(C)NC(=O)[C@H](CCC(N)=O)NC(=O)[C@H](C)NC(=O)[C@H](CCCCNC(=O)COCCOCCNC(=O)COCCOCCNC(=O)CC[C@H](NC(=O)CCCCCCCCCCCCCCCCC(=O)O)C(=O)O)NC(=O)[C@H](CCC(=O)O)NC(=O)[C@H](CC(=O)O)NC(=O)[C@H](CC(C)C)NC(=O)[C@](C)(CC(C)C)NC(=O)[C@@H](NC(=O)[C@H](CO)NC(=O)[C@H](Cc1ccc(O)cc1)NC(=O)[C@H](CC(=O)O)NC(=O)[C@H](CO)NC(=O)[C@@H](NC(=O)[C@H](Cc1ccccc1)NC(=O)[C@@H](NC(=O)CNC(=O)[C@H](CCC(=O)O)NC(=O)C(C)(C)NC(=O)[C@@H](N)Cc1ccc(O)cc1)[C@@H](C)O)[C@@H](C)O)[C@@H](C)CC)[C@@H](C)CC)C(=O)N[C@@H](CCC(=O)O)C(=O)NCC(=O)NCC(=O)N1CCC[C@H]1C(=O)N[C@@H](CO)C(=O)N[C@@H](CO)C(=O)NCC(N)=O [Example 303] (H-Y[Aib]EGTFTSDYSI[αMeL]LDEK([AEEA-AEEA-γGlu-C18 diacid])AQ[Aib]AFIEYLIEGGPSSG-NH2) | – | – | – | – | – | – | – | – | 3.69 | low | 0.058
